Literature values in patent US11400105B2, “Anti-inflammatory properties of marine lipid compositions” (AKER BIOMARINE ANTARCTIC AS, priority 2006, dated 2022).

What was measured:
[1] = tested on: pre-term infants; conditions: for absorption: ref [8]
[2] = ethyl esters (4 g/d); ref [12]

| SMILES | absorption [1] [%] | absorption of DHA from egg lecithin ([1]; ref [7]) [%] | absorption of DHA from triglycerides ([1]; ref [7]) [%] | relative absorption based on the area under the concentration curve [2] [%] | relative absorption compared to oleic acid calculated from peak concentrations [2] [%] |
| --- | --- | --- | --- | --- | --- |
| CCCCCC=CCC=CCC=CCC=CCCCC(=O)O [AA, 5,8,11,14-eicosatetraenoic acid] | 75 | – | – | – | – |
| CC/C=C\C/C=C\C/C=C\C/C=C\C/C=C\C/C=C\CCC(=O)O [DHA, 4,7,10,13,16,19-docosahexanoic acid] | 62 | 90 | 80 | 93 | 100 |
| CCC=CCC=CCC=CCC=CCC=CCCCC(=O)O [EPA, 5,8,11,14,17-eicosapentaenoic acid] | – | – | – | 91 | 94 |
